Laboratory results published in ChEMBL document CHEMBL6153170 (J Med Chem, 2025).
Calls of active or inactive are those of the source. The rule behind the calls is not given here.

Columns and labels:
[1] = target: T1, Histone deacetylase 8 (Mus musculus) (UniProt Q8VH37); assay: Inhibition of HDAC8 in mouse B16-F10 cells assessed as increase in acetylated SMC3 level incubated for 12 hrs by Western blot analysis; type: cell-based
T1 sequence (whole entry): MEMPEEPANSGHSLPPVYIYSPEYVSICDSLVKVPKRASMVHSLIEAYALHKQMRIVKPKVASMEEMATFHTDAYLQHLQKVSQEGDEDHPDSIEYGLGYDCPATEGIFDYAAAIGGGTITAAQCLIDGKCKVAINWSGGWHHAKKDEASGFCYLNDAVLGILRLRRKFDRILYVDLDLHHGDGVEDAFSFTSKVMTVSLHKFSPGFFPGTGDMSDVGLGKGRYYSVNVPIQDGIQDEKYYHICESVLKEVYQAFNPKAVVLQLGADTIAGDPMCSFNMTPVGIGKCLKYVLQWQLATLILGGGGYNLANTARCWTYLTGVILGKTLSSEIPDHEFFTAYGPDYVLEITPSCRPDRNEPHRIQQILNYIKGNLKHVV

Jurkat [2] = assay: Effect on Histone H3 protein level in human Jurkat T cells at 0.1 to 2 uM incubated for 12 hrs by Western blot analysis; type: functional, cell-based; settings: dose 0.1-2 µM
Jurkat [3] = assay: Effect on acetylated histone H3 protein level in human Jurkat T cells at 0.1 to 2 uM incubated for 12 hrs by Western blot analysis; type: functional, cell-based; settings: dose 0.1-2 µM
[4] = AUC (0 to infinity) in male Sprague-Dawley rat at 2 mg/kg, iv measured after 48 hrs by triple quadrupole mass spectrometric analysis; type: ADME, organism-based; settings: in vivo
[5] = AUC (0 to t) in male Sprague-Dawley rat at 10 mg/kg, po measured after 48 hrs by triple quadrupole mass spectrometric analysis; type: ADME, organism-based; settings: in vivo
[6] = Toxicity in C57 mouse assessed as myelosuppression by measuring hemoglobin level at 20 mg/kg/day, IG administered for 14 days by heat map analysis; type: organism-based; settings: in vivo, po, 336 h, time 14 day
[7] = Toxicity in C57 mouse assessed as myelosuppression by measuring neutrophil level at 20 mg/kg/day, IG administered for 14 days by heat map analysis; type: organism-based; settings: in vivo, po, 336 h, time 14 day
[8] = Toxicity in C57 mouse assessed as myelosuppression by measuring MPV level at 20 mg/kg/day, IG administered for 14 days by heat map analysis; type: organism-based; settings: in vivo, po, 336 h, time 14 day
[9] = Toxicity in C57 mouse assessed as change in UREA level at 20 mg/kg/day, IG administered for 14 days by heat map analysis; type: organism-based; settings: in vivo, po, 336 h, time 14 day

inhibition [1]: inactive | AUC(0-inf) [4]: 1290 ng·h/mL | AUC(0-t) at 48 h [5]: 872 ng·h/mL
Compound: COc1nc(-c2cccc(-c3ccccc3)c2C)ccc1CNCCCCCCC(=O)NO
Activity (Jurkat [2]): inactive | Activity (Jurkat [3]): Active; Negligible Effect Observed | Activity [6]: Non-toxic | Activity [7]: Non-toxic | Activity [8]: Non-toxic | Activity [9]: Non-toxic
